Here are results for 8 molecules from patent US20160113905A1, “Polymer composition and polymer material” (INDUSTRIAL TECHNOLOGY RESEARCH INSTITUTE, priority 2012, published 2016).

Where “and” joins values, the source holds several entries; their conditions need not be identical. Identical values can stand only once.

The inhibition is the drop in the measured response relative to a control, in per cent. For orientation: IC50 means the midpoint of a concentration-inhibition curve. A high value points to weaker potency.

T1 sequence (P14780 107-707 limits assumed, species assumed): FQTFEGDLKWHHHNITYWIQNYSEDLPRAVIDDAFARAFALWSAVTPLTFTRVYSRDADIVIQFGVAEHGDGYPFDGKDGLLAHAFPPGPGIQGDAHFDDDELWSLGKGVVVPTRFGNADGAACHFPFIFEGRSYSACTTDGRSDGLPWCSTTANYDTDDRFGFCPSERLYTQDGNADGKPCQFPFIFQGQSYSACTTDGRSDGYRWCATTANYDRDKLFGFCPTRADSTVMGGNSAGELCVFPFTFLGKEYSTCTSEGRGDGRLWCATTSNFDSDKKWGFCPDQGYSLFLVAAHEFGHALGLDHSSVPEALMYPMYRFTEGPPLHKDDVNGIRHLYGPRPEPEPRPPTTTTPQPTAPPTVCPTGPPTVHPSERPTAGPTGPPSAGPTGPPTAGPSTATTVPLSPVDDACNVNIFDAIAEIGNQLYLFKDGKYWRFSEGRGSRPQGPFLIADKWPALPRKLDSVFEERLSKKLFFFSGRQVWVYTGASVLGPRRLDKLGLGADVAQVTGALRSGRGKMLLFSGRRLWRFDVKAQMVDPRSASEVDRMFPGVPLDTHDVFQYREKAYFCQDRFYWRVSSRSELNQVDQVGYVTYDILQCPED

One test addresses T1, matrix metalloproteinase-9 (Homo sapiens, UniProt P14780).
Assay: not given
For “histidine grafted-hydroxypropyl methylcellulose derivative [Lot 6]”, the inhibition was 42.4% and 37.3%.
Same read-out and setting: the result for “histidine grafted-hydroxypropyl methylcellulose derivative [Lot 7]” reads 36.4%; that for “histidine grafted-poly(ethylene vinyl-co-alcohol) derivative [Lot 4]”, 38.2%; that for “histidine grafted-poly(ethylene vinyl-co-alcohol) derivative [Lot 3]”, 43.7%.
On the same count and under the same terms, with `CC(C)(C)OC(=O)N[C@@H](Cc1c[nH]cn1)C(=O)O` [BocHis, Boc-histidine, reference compound] the figure was 76.8%; with “histidine grafted-polyvinyl alcohol derivative [Lot 2]”, 41%; with “histidine grafted-hydroxypropyl methylcellulose derivative [Lot 5]”, 33.2%.

The next test deals with T1, matrix metalloproteinase-9.
Assay: not given
This is another data set of the same source.
“histidine grafted-poly(ethylene vinyl-co-alcohol) derivative [EVOH-g-BocHis]”: the inhibition was 26.2% and 22.9%.

A further test deals with T1, matrix metalloproteinase-9. In words: Inhibition test of matrix metalloproteinase-9 activity (fluorogenic substrate, activated pro-MMP-9).
Experimental: Step 1: Activation of Pro-Matrix Metalloproteinase-9
100 nM APMA (final concentration 1 M) as added to a 10 μg/ml of pro-matrix metalloproteinase-9 solution (R&D), and reacted in a 37° C. incubator for 2 hours to convert pro matrix metalloproteinase-9 to activated pro-matrix metalloproteinase-9
The activated pro-matrix metalloproteinase-9 was diluted with matrix metalloproteinase-9 activity analysis buffer (50 mM Tris, 10 mM CaCl2, 150 mM NaCl, 0.05% Brij-35(w/v), pH 7.5) to a concentration of 10 ng/ml. Activated pro-matrix metalloproteinase-9 was added to each test sample and placed in a 37° C. incubator for reaction for 2 or 24 hours. The negative control group contained no activated pro-matrix metalloproteinase-9 solution to test the response of the sample, and positive control added metalloproteinase-9 activity inhibitor, 1,10-Phenanthroline (1,10-PT) (final concentration: 0.1 mM), to the activated pro-matrix metalloproteinase-9 solution.
Step 3: Analysis for Matrix Metalloproteinase-9
The activated pro-matrix metalloproteinase-9 solution after being reacted with the material was taken in a 96-well black plate. Equal volume of substrate for matrix metalloproteinase-9 was added to the 96-well black plate and reacted in a 37° C. incubator for 0.5-1 hour, and then the fluorescence (Ex/Em=320/405 nm) of the reaction was determined by a high sensitivity fluorescence reader (Flexstation3).
In turn, `CC(C)(C)OC(=O)N[C@@H](Cc1c[nH]cn1)C(=O)O` [BocHis, Boc-histidine, reference compound] showed an IC50 of 10.3 mM.
